{
  "source": "patent US4490388A",
  "about": "“Amidine compound and anticomplement agent comprising same” (Torii & Co., Ltd., priority 1981, dated 1984)",
  "key": {"C1s": {"target": "T1, C1s (Homo sapiens, UniProt P09871)", "T1 sequence (P09871 438-688 limits assumed)": "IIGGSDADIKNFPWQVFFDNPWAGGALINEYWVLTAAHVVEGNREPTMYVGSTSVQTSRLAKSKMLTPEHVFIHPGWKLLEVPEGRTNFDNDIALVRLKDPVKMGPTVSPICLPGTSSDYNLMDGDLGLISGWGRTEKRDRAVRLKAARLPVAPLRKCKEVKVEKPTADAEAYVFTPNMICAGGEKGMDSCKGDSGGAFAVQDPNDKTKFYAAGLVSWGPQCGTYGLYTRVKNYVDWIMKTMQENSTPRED", "T1 sequence (P09871 16-437 partner limits assumed)": "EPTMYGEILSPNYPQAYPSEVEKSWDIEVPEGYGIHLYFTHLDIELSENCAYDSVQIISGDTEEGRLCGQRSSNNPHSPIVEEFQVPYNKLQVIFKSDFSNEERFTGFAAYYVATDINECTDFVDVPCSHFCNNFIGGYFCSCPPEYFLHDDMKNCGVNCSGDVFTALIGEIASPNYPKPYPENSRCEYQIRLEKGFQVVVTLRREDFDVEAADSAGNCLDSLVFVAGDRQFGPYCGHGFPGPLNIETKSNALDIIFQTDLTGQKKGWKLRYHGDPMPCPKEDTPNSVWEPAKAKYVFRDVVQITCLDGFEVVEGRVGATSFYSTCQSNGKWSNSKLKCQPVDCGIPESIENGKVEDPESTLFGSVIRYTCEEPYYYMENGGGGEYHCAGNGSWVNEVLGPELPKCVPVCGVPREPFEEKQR", "assay": "Anti-C1 esterase activity, C1s (hydrolysis of ATEE)", "format": "biochemical", "experimental": "The anti-C1 esterase (C1r, C1s) activity was determined according to the method of Okamura et al. [K. Okamura, M. Muramatsu and B. Fujii, Biochem. Biophys. Acta, 295, 252-257 (1973)]. The inhibition of complement mediated hemolysis was determined according to the method of Baker et al. [B. R. Baker and E. H. Erickson, J. Med. Chem., 12, 408-414 (1969)]. The figures in Table 2 have the following meanings:\nC1s: Molar concentration of the test compound which inhibits 50% of the ability of C1s to hydrolyse ATEE (acetyltyrosin ethyl ester)."}, "complement [1]": {"test_system": "complement", "settings": "Y. Takada et al., Immunology 34, 509-515 (1978); cited from earlier work"}, "complement [2]": {"test_system": "complement", "assay": "Inhibition of complement mediated hemolysis", "format": "cell-based", "settings": "read-out: Inhibition of complement mediated hemolysis (%)", "quoted_text": "The complement mediated hemolysis is widely used as a means to determine the titration of complement. The principle of this method is based on the fact that hemolysis is caused by the activation of complement, when the latter is added to a complex (immune complex) of erythrocytes and the autibody thereof. The degree of hemolysis varies in proportion to the amount of complement added. Therefore, when a known amount of complement admixed with a C1 esterase inhibitor is used, the hemolysis must be suppressed in proportion to the inhibitory activity.\nThe anti-C1 esterase (C1r, C1s) activity was determined according to the method of Okamura et al. [K. Okamura, M. Muramatsu and B. Fujii, Biochem. Biophys. […] The inhibition of complement mediated hemolysis was determined according to the method of Baker et al. [B. R. Baker and E. H. Erickson, J. Med. Chem., 12, 408-414 (1969)]."}, "C1r": {"target": "T2, C1r (Homo sapiens, UniProt P00736)", "T2 sequence (P00736 464-705 limits assumed)": "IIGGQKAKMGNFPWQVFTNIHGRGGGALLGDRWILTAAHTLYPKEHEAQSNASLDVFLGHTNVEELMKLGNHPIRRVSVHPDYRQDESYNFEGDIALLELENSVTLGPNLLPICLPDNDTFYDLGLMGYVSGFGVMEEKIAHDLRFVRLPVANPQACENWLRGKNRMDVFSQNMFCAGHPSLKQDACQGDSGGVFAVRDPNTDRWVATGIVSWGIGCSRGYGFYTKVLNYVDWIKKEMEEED", "T2 sequence (P00736 18-463 partner limits assumed)": "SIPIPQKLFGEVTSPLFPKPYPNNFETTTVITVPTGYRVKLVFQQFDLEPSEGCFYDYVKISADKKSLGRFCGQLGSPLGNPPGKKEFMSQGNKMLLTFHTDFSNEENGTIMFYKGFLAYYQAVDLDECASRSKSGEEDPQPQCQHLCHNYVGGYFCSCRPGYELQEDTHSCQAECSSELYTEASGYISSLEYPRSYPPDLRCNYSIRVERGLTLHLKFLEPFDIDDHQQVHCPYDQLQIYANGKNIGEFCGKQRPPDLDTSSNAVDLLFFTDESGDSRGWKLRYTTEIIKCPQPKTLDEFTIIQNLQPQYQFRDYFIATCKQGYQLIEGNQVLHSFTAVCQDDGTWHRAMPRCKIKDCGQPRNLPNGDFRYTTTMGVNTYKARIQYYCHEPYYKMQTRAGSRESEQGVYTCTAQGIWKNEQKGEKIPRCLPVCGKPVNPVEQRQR", "assay": "Anti-C1 esterase activity, C1r (hydrolysis of AAME)", "format": "biochemical", "settings": "molar concentration inhibiting 50% of AAME hydrolysis; read-out: Anti-C1 activity, C1r id50", "experimental": "The anti-C1 esterase (C1r, C1s) activity was determined according to the method of Okamura et al. [K. Okamura, M. Muramatsu and B. Fujii, Biochem. Biophys. […] The figures in Table 2 have the following meanings:\nC1r: Molar concentration of the test compound which inhibits 50% of the ability of C1r to hydrolyse AAME (acetylarginin methyl ester) (id50)."}},
  "data": [
    {"smiles": "CC(=O)N[C@@H](CC(C)C)C(=O)N[C@@H](CC(C)C)C(=O)N[C@H](C=O)CCCNC(=N)N", "note": "[Leupeptin, reference compound]", "values": [
      {"measurement": "IC50", "setting": "C1s", "result": 20, "unit": "µM"},
      {"measurement": "anti-complement activity (in words)", "setting": "complement [1]", "result": "anti-complement activity"},
      {"measurement": "inhibition at 0.1 µM", "setting": "complement [2]", "result": 0, "unit": "%"},
      {"measurement": "inhibition at 1 µM", "setting": "complement [2]", "result": 0, "unit": "%"},
      {"measurement": "inhibition at 10 µM", "setting": "complement [2]", "result": 52, "unit": "%"},
      {"measurement": "inhibition at 100 µM", "setting": "complement [2]", "result": 97, "unit": "%"},
      {"measurement": "IC50", "setting": "C1r", "result": 200, "unit": "µM"}
    ]}
  ]
}
